In the data set the test system is PDE1 activity in RPMI 8392 cells. In words: CaM-stimulated PDE (PDE1) activity in cells after ODN treatment. Conditions: for PDE1 (CaM-stimulated PDE) activity: 3 days. The data set is classed as cell-based, human. How it is done: Cells were grown to a density of about 10^6 /ml, collected by centrifugation (1200×g, 10 min), resuspended in I ml of homogenization buffer containing 40 mM Tris/HCl (pH 7.5), 1 mM EDTA, 1 mM DTT, 35 μg/ml phenylmethylsulfonyl fluoride, 15 mM benzamidine, 1 μg/ml leupeptin, 1 μg/ml antipain, 1 μg/ml pepstatin, and 1 μg/ml aprotinin, homogenized with 20 strokes of a Dounce glass-on-glasshomogenizer and assayed for PDE activity, using 1 μM cAMP as substrate, as described previously. Data points represent the means of 2 to 10 separate determinations. […] Control activity was 1.66±0.14 pmol/min/10^6 cells (mean±S.E.M.; n=8) in the absence and 4.80±0.42 pmol/min/10^6 cells (mean±S.E.M.; n=10) in the presence of Ca^2+ and calmodulin.
RPMI 8392 cells were grown and treated with AS and NS ODN as described in the legend to FIG. 2. Cells were then collected at daily intervals and assayed for PDE activity as described in FIG. 10. Results represent the mean±the range of duplicate determinations. Control activities (pmol/min/10^6 cells) were 1.17, 1.34, and 1.50 in the absence, and 3.83, 4.34, and 3.79 in the presence of Ca^2+ and calmodulin at days 1, 2, and 3, respectively.

Entries after “also recorded” stand apart in the source; their conditions may differ.

“5'-GGACAGCTCCATGCTCAG-3' (phosphorothioate, further chemistry not given here) [AS ODN, 18 nt phosphorothioate antisense oligodeoxynucleotide targeted against the translation initiation region of PDE1B1]”: the PDE1 activity entry (30 μM ODN, 2 days) was “noticeably diminished”. Moreover, for the setting “10 or 30 μM ODN”, the “PDE1 (CaM-stimulated PDE) activity” value is “undetectable; also recorded: disappear completely”.

As for “5'-TACGTGAGGCACCTACGC-3' (phosphorothioate, further chemistry not given here) [NS ODN, control phosphorothioate nonsense ODN, same base composition as the AS ODN in random, scrambled order]”, where the note is “10 or 30 μM ODN”, the “PDE1 (CaM-stimulated PDE) activity” value is reported as “relatively unchanged”. Moreover, the PDE1 activity result (10 or 30 μM ODN, time not specified) is reported as “little or no effect”.
